# Assay results taken from the supplement of paper PMC10307832.
# Assays:
# Test in all cases: relative viability (nuclei count vs DMSO), 5 days (fraction); higher = more cells survive
# Dinaciclib + Decitabine = compound: CCc1cnn2c(NCc3ccc[n+]([O-])c3)cc(N3CCCC[C@H]3CCO)nc12 [Dinaciclib] + Nc1ncn([C@H]2C[C@H](O)[C@@H](CO)O2)c(=O)n1 [Decitabine] (partner 2 µM)
# Procedure, shortened: (§1)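 Each reported value is a median over duplicate plates. It expresses relative viability: treated-well nuclei count divided by vehicle-well nuclei count. Lung cancer cell lines in 1536-well plates were dosed by pin tool a day after seeding, alone with one drug or with a fixed anchor-drug dose plus five library-drug doses (not always all listed) in √10 steps, and nuclei were counted after 5 days.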
# Dinaciclib + Foretinib = compound: CCc1cnn2c(NCc3ccc[n+]([O-])c3)cc(N3CCCC[C@H]3CCO)nc12 [Dinaciclib] + COc1cc2c(Oc3ccc(NC(=O)C4(C(=O)Nc5ccc(F)cc5)CC4)cc3F)ccnc2cc1OCCCN1CCOCC1 [Foretinib] (partner 0.25 µM)
# Procedure, shortened: as §1
# Dinaciclib + OSI-027 = compound: CCc1cnn2c(NCc3ccc[n+]([O-])c3)cc(N3CCCC[C@H]3CCO)nc12 [Dinaciclib] + COc1cccc2cc(-c3nc([C@H]4CC[C@H](C(=O)O)CC4)n4ncnc(N)c34)[nH]c12 [OSI-027] (partner 0.5 µM)
# Procedure, shortened: as §1
# Dinaciclib + Alpelisib = compound: CCc1cnn2c(NCc3ccc[n+]([O-])c3)cc(N3CCCC[C@H]3CCO)nc12 [Dinaciclib] + Cc1nc(NC(=O)N2CCC[C@H]2C(N)=O)sc1-c1ccnc(C(C)(C)C(F)(F)F)c1 [Alpelisib] (partner 2 µM)
# Procedure, shortened: as §1
# Dinaciclib + Luminespib = compound: CCc1cnn2c(NCc3ccc[n+]([O-])c3)cc(N3CCCC[C@H]3CCO)nc12 [Dinaciclib] + CCNC(=O)c1noc(-c2cc(C(C)C)c(O)cc2O)c1-c1ccc(CN2CCOCC2)cc1 [Luminespib] (partner 0.01 µM)
# Procedure, shortened: as §1
Cell Line,relative viability (Dinaciclib + Decitabine; first compound 0.009487 µM),relative viability (Dinaciclib + Decitabine; first compound 0.03 µM),relative viability (Dinaciclib + Decitabine; first compound 0.09487 µM),relative viability (Dinaciclib + Decitabine; first compound 0.3 µM),relative viability (Dinaciclib + Foretinib; first compound 0.009487 µM),relative viability (Dinaciclib + Foretinib; first compound 0.03 µM),relative viability (Dinaciclib + Foretinib; first compound 0.09487 µM),relative viability (Dinaciclib + Foretinib; first compound 0.3 µM),relative viability (Dinaciclib + OSI-027; first compound 0.009487 µM),relative viability (Dinaciclib + OSI-027; first compound 0.03 µM),relative viability (Dinaciclib + OSI-027; first compound 0.09487 µM),relative viability (Dinaciclib + OSI-027; first compound 0.3 µM),relative viability (Dinaciclib + Alpelisib; first compound 0.009487 µM),relative viability (Dinaciclib + Alpelisib; first compound 0.03 µM),relative viability (Dinaciclib + Alpelisib; first compound 0.09487 µM),relative viability (Dinaciclib + Alpelisib; first compound 0.3 µM),relative viability (Dinaciclib + Luminespib; first compound 0.009487 µM),relative viability (Dinaciclib + Luminespib; first compound 0.03 µM),relative viability (Dinaciclib + Luminespib; first compound 0.09487 µM),relative viability (Dinaciclib + Luminespib; first compound 0.3 µM)
EMC-BAC-2,0.991,0.26,0.22,0.24,1.14,0.319,0.159,0.148,0.353,0.188,0.207,0.217,0.765,0.227,0.113,0.112,1.15,0.382,0.145,0.16
NCI-H661,0.472,0.181,0.158,0.196,0.851,0.213,0.202,0.199,0.637,0.163,0.168,0.168,0.346,0.147,0.176,0.152,0.906,0.195,0.169,0.148
LU99A,0.793,0.145,0.13,0.149,0.545,0.183,0.128,0.154,0.284,0.202,0.153,0.144,0.37,0.133,0.116,0.0993,0.177,0.149,0.12,0.124
LK-2,0.27,0.119,0.0855,0.0805,1.13,0.267,0.164,0.142,0.218,0.196,0.16,0.131,0.849,0.274,0.232,0.199,0.165,0.139,0.166,0.162
SW 900,0.408,0.325,0.182,0.151,0.874,0.462,0.0641,0.0639,0.578,0.103,0.0689,0.098,–,–,–,–,0.19,0.176,0.0768,0.0536
NCI-H3122,0.404,0.117,0.121,0.107,1.02,0.131,0.0904,0.0928,0.407,0.108,0.0984,0.114,0.489,0.157,0.119,0.15,0.115,0.122,0.0991,0.0858
NCI-H2347,0.673,0.383,0.212,0.232,0.824,0.248,0.298,0.261,0.437,0.204,0.144,0.151,0.986,0.324,0.274,0.222,0.249,0.12,0.105,0.118
NCI-H1563,–,–,–,–,1.14,0.504,0.327,0.291,0.795,0.416,0.297,0.27,1.09,0.459,0.388,0.302,0.526,0.272,0.177,0.128
HCC-827,0.351,0.131,0.12,0.137,1.09,0.682,0.147,0.13,0.887,0.565,0.129,0.116,0.879,0.601,0.126,0.123,0.805,0.108,0.103,0.107
NCI-H1666,0.831,0.487,0.326,0.333,0.832,0.318,0.38,0.328,0.857,0.484,0.375,0.346,0.716,0.165,0.228,0.243,1.07,0.361,0.357,0.305
NCI-H358,0.157,0.0817,0.075,0.0916,0.493,0.0864,0.0847,0.0882,0.49,0.0844,0.0665,0.0776,0.61,0.14,0.161,0.183,0.276,0.0982,0.0922,0.0842
201T,0.943,0.767,0.168,0.209,1.19,0.174,0.171,0.15,0.801,0.297,0.119,0.183,1.11,0.829,0.288,0.284,1.2,0.342,0.24,0.256
PC-3 [JPC-3],0.794,0.671,0.34,0.302,1.09,0.93,0.254,0.224,0.764,0.693,0.249,0.209,0.99,0.899,0.362,0.21,0.668,0.417,0.219,0.199
NCI-H2405,0.7,0.261,0.212,0.219,1.02,0.256,0.248,0.238,0.625,0.409,0.226,0.198,0.876,0.22,0.208,0.184,0.688,0.231,0.193,0.247
LXF-289,0.356,0.293,0.109,0.0948,1.03,0.706,0.0732,0.0742,0.948,0.4,0.0693,0.0617,1.01,0.264,0.0715,0.0695,0.642,0.106,0.068,0.0731
EKVX,0.388,0.196,0.136,0.123,0.93,0.0805,0.246,0.0963,0.694,0.59,0.204,0.105,0.862,0.449,0.11,0.122,0.858,0.705,0.137,0.101
